Data reported in patent publication US20120171123A1, “USES AND COMPOSITIONS FOR TREATMENT OF RHEUMATOID ARTHRITIS” (priority 2006, published 2012).

Assays:
adult patients with RA = assay: Study 1: change in C-reactive protein at Week 12; format: in vivo, human
Experimental: 407 patients with active RA enrolled in the 2 study arms. Of these patients, 299 (73.5%) patients completed the study until Week 52 and were evaluated.
Patients were grouped into three cohorts based on baseline CRP concentrations: low (<1 mg/dL); intermediate (1-4 mg/dL); and high (>4 mg/dL). Analyses were further conducted in two categories of patients according to their change in CRP concentrations at Week 12: those with a ≧20% decrease in CRP from baseline; or those with a <20% decrease in CRP from baseline. The following efficacy and radiographic measures were analyzed at Week 52 in the three baseline CRP categories and in the two Week 12 change in CRP categories: DAS28, ACR 20/50/70, Health assessment questionnaire (HAQ), and Total Sharp score (TSS).

[1] = system: patients with long-standing RA; assay: Study I open-label extension (adalimumab 40 mg eow + MTX): ACR response; format: in vivo, human; settings: 5 years, observed
Experimental: 217 patients who completed the blinded period and participated in the extension trial for a minimum of 6 months were allowed to adjust MTX and/or corticosteroid dosages at the discretion of the principal investigators. Dose tapering was conducted according to standard medical practice with respect to controlling disease activity
Demographic data, age, gender, disease duration, rheumatoid factor and changes in TJC, SJC, CRP, DAS28, HAQ and ACR responses were analysed. Baseline demographics and disease characteristics as well as efficacy measures at last visit (ACR 20/50/70, DAS28, HAQ) were compared between the groups. All patients, including those who discontinued from the trial, were evaluated
Patients were eligible to enroll in Study I if they met ACR criteria for diagnosis of RA. […] Efficacy outcomes were assessed at pre-specified intervals as observed data. Treatment time was calculated beginning with the first subcutaneous injection of adalimumab at any dose, excluding time on placebo. Improvements in signs and symptoms of RA were evaluated for ACR20, ACR50, and ACR70 criteria, 28-joint count Disease Activity Score (DAS28) using the CRP-based formula, and Health Assessment Questionnaire (HAQ). Patients with changes in dosage of MTX or corticosteroids were evaluated for at least 6 months; these patients were eligible for the extension study for at least 6 months and were eligible for discretionary dose tapering. Patients were monitored for adverse events (AEs) during the entire length of the study, from signed informed consent through last visit.

[2] = system: patients with active rheumatoid arthritis; settings: Study A (N=2008), 12 weeks; cited from earlier work
[3] = system: patients with long-standing RA; assay: Study 4: CRP; format: in vivo, human
Source text: Percentage change of mean clinical improvement from baseline us describe in Table 15 below.

[4] = system: patients with long-standing RA; assay: Study 4: change in dosing of concomitant corticosteroids and methotrexate; format: in vivo, human
Source text: The mean corticosteroid dose (mg/day) at baseline was 5.56, where the mean corticosteroid dose (mg/day) at the final dose was 3.57 (p<0.0001 (determined by Wilcoxon's signed rank test)).
There was also a change in the dosing of concomitant methotrexate for RA patients in the study being treated with adalimumab. […] For only 8% of patients was the dose of mtx increased.

[5] = system: patients with severe RA who had failed MTX; assay: Study 2 / Study 3 OLE (adalimumab monotherapy): SF-36; format: in vivo, human; settings: within 26 weeks
Experimental: In addition to the SF-36 instrument, the Health Utilities Index Mark 3 (HUI3) and the Functional Assessment of Chronic Illness Therapy-Fatigue (FACIT-F) questionnaires were administered at baseline, 12 weeks, and the end of the study.
The HUI3 scale is 0-1, with “1” denoting perfect health and “0” denoting death. FACIT-F scores range from 0-52, with higher scores representing less fatigue. The SF-36 includes one multi-item scale that assesses eight different dimensions of health, including physical and psychosocial components. For each dimension a value of 0-100 is given, with higher numbers representing less impairment. Changes in HUI3 of ≧0.03, in FACIT-F of ≧4 and in SF-36 of ≧4.4 (physical subscales) and ≧3.1 (mental subscales) are considered clinically meaningful.
In addition to clinical parameters, the SF-36 instrument, the Health Utilities Index Mark 3 (HUI3), and the Functional Assessment of Chronic Illness Therapy-Fatigue (FACIT-F) questionnaires were administered at baseline, and at weeks 12, 26, 50, 74, 98, 122, 146 and 170, respectively. The HUI3 scale ranges from 0-1, with “1” denoting perfect health and “0” denoting death. FACIT-F scores range from 0-52, with higher scores representing less fatigue. SF-36 scores range from 0-100 with higher scores indicating improvement in HRQoL. […]

CN(Cc1cnc2nc(N)nc(N)c2n1)c1ccc(C(=O)N[C@@H](CCC(=O)O)C(=O)O)cc1 [mtx alone, methotrexate]
patients with <20% decrease in CRP (adult patients with RA): 67%
patients with ≧20% decrease in CRP (adult patients with RA): 33%

adalimumab: human anti-TNF mAb (HUMIRA, Abbott Laboratories), described in U.S. Pat. No. 6,090,382 as D2E7
ACR20 [1]: 76%
ACR50 [1]: 64%
ACR70 [1]: 39%
SJC (0-28), change from baseline, median [2]: −7
TJC (0-28), change from baseline, median [2]: −10
CRP, % change of mean clinical improvement from baseline ([3]; 6 months): 14%
CRP, % change of mean clinical improvement from baseline ([3]; 12 months): 33%
CRP, % change of mean clinical improvement from baseline ([3]; 24 months): 29%
CRP, % change of mean clinical improvement from baseline ([3]; 36 months): 28%
CRP, % change of mean clinical improvement from baseline ([3]; 48 months): 37%
mean concomitant corticosteroid dose ([4]; at final dose (baseline 5.56)): 3.57 mg/day
mean concomitant mtx dose ([4]; at final dose of adalimumab (baseline 15.79)): 13.81 mg/week
patients with dose reduction of steroids ([4]; n=294): 29%
patients with increased steroid dose ([4]; n=294): 6%
patients with unchanged steroid dose ([4]; n=294): 40%
patients with increased mtx dose ([4]; n=546): 8%
patients with mtx dose reduction ([4]; n=546): 32%
patients with unchanged mtx dose ([4]; n=546): 60%
patients able to discontinue steroids ([4]; patients on concomitant corticosteroids, n=294): 24%
SF-36 scores of all subscales/domains [5]: clinically meaningful improvements
